Test results reported in patent US20230365537A1, “POLO LIKE KINASE 4 INHIBITORS” (ORIC Pharmaceuticals, Inc., priority 2021, published 2023).

Key:
human recombinant PLK4 = human recombinant PLK4 (Homo sapiens (Human), UniProt O00444); assay: PLK4 Biochemical Assay (ADP-Glo); conditions: 0.5 nM PLK4, 8.0 µM ATP, 4.7 µM MBP, 6 hours at RT
Outline: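 Recombinant human PLK4 (added at 1.0 nM) was preincubated 15 min at RT with compound in 50 mM HEPES pH 7.5, 10 mM MgCl2, 1 mM EGTA, 1 mM DTT, 0.01% Brij-35, 0.01% BSA. ADP formed was detected by ADP-Glo luminescence (40 min ATP depletion, 30 min detection). IC50 came from a four-parameter fit.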

CHP-134 cells = assay: CHP134 CellTiter-Glo (CTG) Assay; assay type: cell-based; conditions: Homo sapiens, CHP-134, 120 h, 5 days, viable cells by CellTiter-Glo
Outline: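 CHP-134 cells seeded at 200 cells/well for 16 h, then given nine 1:3 serial dilutions in quadruplicate at 37° C, 5% CO2. Viable cells measured by CellTiter-Glo luminescence after 5 days; IC50 calculated from curves.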

[1] = target: human recombinant Aurora B (Homo sapiens (Human), UniProt Q96GD4); assay: Aurora B Kinase Biochemical Assay (ADP-Glo); conditions: ratio of Aurora B IC50 to PLK4 IC50 (selectivity)
Outline: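 Recombinant human Aurora B (20 nM in pH 7.5 HEPES buffer with MgCl2, EGTA, DTT, Brij-35, BSA) preincubated with compound 15 min at RT. ADP formed quantified by ADP-Glo luminescence after ATP depletion (40 min) and detection (30 min). IC50 from four-parameter non-linear regression.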

[2] = target: human recombinant Aurora A (Homo sapiens (Human), UniProt O14965); assay: Aurora A Kinase Biochemical Assay (ADP-Glo); conditions: ratio of Aurora A IC50 to PLK4 IC50 (selectivity)
Chain of human recombinant Aurora A (O14965 whole entry): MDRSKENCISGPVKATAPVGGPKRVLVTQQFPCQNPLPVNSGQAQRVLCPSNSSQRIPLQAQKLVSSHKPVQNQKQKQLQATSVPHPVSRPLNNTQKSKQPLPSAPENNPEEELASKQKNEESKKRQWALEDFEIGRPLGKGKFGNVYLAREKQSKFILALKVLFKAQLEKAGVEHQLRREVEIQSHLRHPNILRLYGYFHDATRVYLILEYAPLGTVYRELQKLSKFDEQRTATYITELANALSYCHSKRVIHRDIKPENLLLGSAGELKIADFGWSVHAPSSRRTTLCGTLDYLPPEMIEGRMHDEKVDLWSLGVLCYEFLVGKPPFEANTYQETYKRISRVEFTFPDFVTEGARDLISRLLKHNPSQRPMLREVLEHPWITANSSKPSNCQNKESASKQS

Chain of human recombinant PLK4 (O00444 whole entry): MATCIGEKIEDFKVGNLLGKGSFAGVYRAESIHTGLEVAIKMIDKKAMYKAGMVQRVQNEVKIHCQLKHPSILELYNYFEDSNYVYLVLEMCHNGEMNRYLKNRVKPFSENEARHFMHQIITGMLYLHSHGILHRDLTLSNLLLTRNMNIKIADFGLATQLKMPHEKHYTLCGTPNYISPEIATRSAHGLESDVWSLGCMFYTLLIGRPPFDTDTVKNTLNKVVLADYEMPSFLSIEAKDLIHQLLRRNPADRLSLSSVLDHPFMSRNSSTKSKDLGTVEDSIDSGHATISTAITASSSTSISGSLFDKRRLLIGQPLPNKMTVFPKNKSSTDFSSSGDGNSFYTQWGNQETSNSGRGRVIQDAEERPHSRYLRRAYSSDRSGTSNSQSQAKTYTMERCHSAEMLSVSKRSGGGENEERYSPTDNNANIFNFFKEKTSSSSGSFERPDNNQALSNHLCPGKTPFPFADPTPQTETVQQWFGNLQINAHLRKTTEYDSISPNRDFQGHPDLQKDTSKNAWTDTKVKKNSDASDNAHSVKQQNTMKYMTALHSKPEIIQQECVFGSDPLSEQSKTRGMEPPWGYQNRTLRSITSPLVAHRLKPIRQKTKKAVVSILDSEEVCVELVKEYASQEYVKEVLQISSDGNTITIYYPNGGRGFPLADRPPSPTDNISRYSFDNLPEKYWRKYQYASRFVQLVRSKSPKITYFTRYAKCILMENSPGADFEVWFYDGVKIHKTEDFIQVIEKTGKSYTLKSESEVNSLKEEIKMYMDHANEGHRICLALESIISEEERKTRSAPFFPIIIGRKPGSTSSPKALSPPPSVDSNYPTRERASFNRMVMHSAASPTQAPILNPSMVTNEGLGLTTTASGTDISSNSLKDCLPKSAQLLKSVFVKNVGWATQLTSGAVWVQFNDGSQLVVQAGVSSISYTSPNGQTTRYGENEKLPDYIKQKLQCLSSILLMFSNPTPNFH
Chain of human recombinant Aurora B (Q96GD4 whole entry): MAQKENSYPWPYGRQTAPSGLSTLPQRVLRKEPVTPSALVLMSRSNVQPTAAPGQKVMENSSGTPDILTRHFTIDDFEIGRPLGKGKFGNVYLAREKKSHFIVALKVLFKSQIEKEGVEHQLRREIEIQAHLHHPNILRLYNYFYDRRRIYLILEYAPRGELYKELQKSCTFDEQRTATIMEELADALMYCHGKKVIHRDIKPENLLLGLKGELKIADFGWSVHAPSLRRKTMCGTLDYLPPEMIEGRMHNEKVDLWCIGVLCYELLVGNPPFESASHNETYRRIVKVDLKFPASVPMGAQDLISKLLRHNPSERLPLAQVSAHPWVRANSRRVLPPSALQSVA

| IC50 (human recombinant PLK4) | [Aurora B IC50 (nM)]/[PLK4 IC50 (nM)] [1] | [Aurora A IC50 (nM)]/[PLK4 IC50 (nM)] [2] | SMILES | IC50 (CHP-134 cells) |
| --- | --- | --- | --- | --- |
| 5.61 nM | 41.732 | 533.856 | COc1ccc2c(c1)[C@]1(C[C@H]1c1ccc3c(Nc4ncc(N5CCOCC5)nc4OC)n[nH]c3c1)C(=O)N2 [Example 94, (1R,2S)-5′-methoxy-2-(3-{[3-methoxy-5-(morpholin-4-yl)pyrazin-2-yl]amino}-1H-indazol-6-yl)spiro[cyclopropane-1,3′-indol]-2′(1′H)-one] | 4600 nM |
| 1.14 nM | 520.2809 | 309.2186 | COc1ccc2c(c1)[C@]1(C[C@H]1c1ccc3c(Nc4nc(N5CCOCC5)ncc4OC)n[nH]c3c1)C(=O)N2 [Example 97, (lR,2S)-5′-methoxy-2-(3-{[5-methoxy-2-(morpholin-4-yl)pyrimidin-4-yl]amino}-1H-indazol-6-yl)spiro[cyclopropane-1,3′-indol]-2′(1′H)-one] | 222 nM |
| 7.55 nM | 305.5335 | 787.0003 | COc1ccc2c(c1)[C@]1(C[C@H]1c1ccc3c(Nc4nc(C)ncc4Cl)n[nH]c3c1)C(=O)N2 [Example 98, (1R,2S)-2-{3-[(5-chloro-2-methylpyrimidin-4-yl)amino]-1H-indazol-6-yl)-5′-methoxyspiro[cyclopropane-1,3′-indol]-2′(1′H)-one] | 65.8 nM |
| 5.8 nM | 129.9724 | 155.05 | COc1ccc2c(c1)[C@]1(C[C@H]1c1ccc3c(Nc4nc(N5CCOCC5)cnc4OC)n[nH]c3c1)C(=O)N2 [Example 99, (1R,2S)-5′-methoxy-2-(3-{[3-methoxy-6-(morpholin-4-yl)pyrazin-2-yl]amino)-1H-indazol-6-yl)spiro[cyclopropane-1,3′-indol]-2′(1′H)-one] | 565 nM |
| 1.73 nM | 230.4498 | 382.0069 | COc1ccc2c(c1)[C@]1(C[C@H]1c1ccc3c(Nc4nc(C5COC5)cnc4OC)n[nH]c3c1)C(=O)N2 [Example 100, (1R,2S)-5′-methoxy-2-(3-{[3-methoxy-6-(oxetan-3-yl)pyrazin-2-yl]amino}-1H-indazol-6-yl)spiro[cyclopropane-1,3′-indol]-2′(l′H)-one] | 567 nM |
| 2.09 nM | 811.5734 | 590.1482 | COc1ccc2c(c1)[C@]1(C[C@H]1c1ccc3c(Nc4nc(N5CC(O)C5)ncc4OC)n[nH]c3c1)C(=O)N2 [Example 114] | 10000 nM |
| 8.04 nM | 186.3415 | 132.6035 | COc1ccc2c(c1)[C@]1(C[C@H]1c1ccc3c(Nc4cncc(C5COC5)n4)n[nH]c3c1)C(=O)N2 [Example 115, (1R,2S)-5′-methoxy-2-(3-{[6-(oxetan-3-yl)pyrazin-2-yl]amino}-1H-indazol-6-yl)spiro[cyclopropane-1,3′-indol]-2′(1′H)-one] | 3460 nM |
| 2.89 nM | 483.7370 | 788.5813 | COc1ccc2c(c1)[C@]1(C[C@H]1c1ccc3c(Nc4nc(C5CC5)ncc4Cl)n[nH]c3c1)C(=O)N2 [Example 116, (1R,2S)-2-(3-((5-chloro-2-cyclopropylpyrimidin-4-yl)amino)-1H-indazol-6-yl)-5′-methoxyspiro[cyclopropane-1,3′-indolin]-2′-one] | 134 nM |
| 2.32 nM | 906.5058 | 1388.1947 | COc1ccc2c(c1)[C@]1(C[C@H]1c1ccc3c(Nc4nc(C(C)C)ncc4Cl)n[nH]c3c1)C(=O)N2 [Example 117, (1R,2S)-2-(3-{[5-chloro-2-(propan-2-yl)pyrimidin-4-yl]amino}-1H-indazol-6-yl)-5′-methoxyspiro[cyclopropane-1,3′-indol]-2′(1′H)-one] | 109 nM |
| 7.32 nM | 902.3357 | 457.0413 | COc1ccc2c(c1)[C@]1(C[C@H]1c1ccc3c(Nc4nc(C5COC5)ncc4Cl)n[nH]c3c1)C(=O)N2 [Example 118, (1R,2S)-2-(3-{[5-chloro-2-(oxetan-3-yl)pyrimidin-4-yl]amino}-1H-indazol-6-yl)-5′-methoxyspiro[cyclopropane-1,3′-indol]-2′(1′H)-one] | 2360 nM |
| 1.59 nM | 973.5516 | 870.2770 | COc1ccc2c(c1)[C@]1(C[C@H]1c1ccc3c(Nc4nc(C5COC5)ncc4OC)n[nH]c3c1)C(=O)N2 [Example 119, (1R,2S)-5′-methoxy-2-(3-{[5-methoxy-2-(oxetan-3-yl)pyrimidin-4-yl)amino}-1H-indazol-6-yl)spiro[cyclopropane-1,3′-indol]-2′(1′H)-one] | 2660 nM |

Further lines, the compound ahead of its results:

| SMILES | IC50 (human recombinant PLK4) | [Aurora B IC50 (nM)]/[PLK4 IC50 (nM)] [1] | [Aurora A IC50 (nM)]/[PLK4 IC50 (nM)] [2] | IC50 (CHP-134 cells) |
| --- | --- | --- | --- | --- |
| COc1ccc2c(c1)[C@]1(C[C@H]1c1ccc3c(Nc4cc(C5CC5)nn4C)n[nH]c3c1)C(=O)N2 [Example 91, (1R,2S)-2-{3-[(3-cyclopropyl-1-methyl-1H-pyrazol-5-yl)amino]-1H-indazol-6-yl}-5′-methoxyspiro[cyclopropane-1,3′-indol]-2′(1′H)-one] | 4.02 nM | 79.87 | 436.427 | 3200 nM |
| COc1ccc2c(c1)[C@]1(C[C@H]1c1ccc3c(Nc4ccnc(N5CCOCC5)c4OC)n[nH]c3c1)C(=O)N2 [Example 95, (1R,2S)-5′-methoxy-2-(3-{[3-methoxy-2-(morpholin-4-yl)pyridin-4-yl]amino}-1H-induzol-6-yl)spiro[cyclopropane-1,3′-indol]-2′(1′H)-one] | 1.31 nM | 54.26 | 2386.677 | 319 nM |
| COc1ccc2c(c1)[C@]1(C[C@H]1c1ccc3c(Nc4cc(C)ncc4Cl)n[nH]c3c1)C(=O)N2 [Example 96, (1R,2S)-2-{3-[(5-chloro-2-methylpyridin-4-yl)amino]-1H-indazol-6-yl}-5′-metboxyspiro[cyclopropane-l,3′-indol]-2′(1′H)-one] | 11.3 nM | 351.8943 | 511.3656 | 56.6 nM |
| COc1ccc2c(c1)[C@]1(C[C@H]1c1ccc3c(Nc4cc(C(C)C)nnc4OC)n[nH]c3c1)C(=O)N2 [Example 101, (1R,2S)-5′-methoxy-2-(3-{[3-methoxy-6-(propan-2-yl)pyridazin-4-yl]amino}-1H-indazol-6-yl)spiro[cyclopropane-1,3′-indol]-2′(1′H)-one] | 11.3 nM | 1002.648 | 1271.845 | 2290 nM |
| COc1ccc2c(c1)[C@]1(C[C@H]1c1ccc3c(Nc4ncnc(N5CC(O)C5)c4Cl)n[nH]c3c1)C(=O)N2C [Example 107, (1R,2S)-2-(3-{[5-chloro-6-(3-hydroxyazetidin-1-yl)pyrimidin-4-yl]amino}-1H-indazol-6-yl)-5′-methoxy-1′-methylspiro[cyclopropane-1,3′-indol]-2′(1′H)-one] | 5.7 nM | 174.4215 | 1455.295 | 730 nM |
| CCN1C(=O)[C@@]2(C[C@H]2c2ccc3c(Nc4ncnc(N5CC(O)C5)c4Cl)n[nH]c3c2)c2cc(OC)ccc21 [Example 108, (1R,2S)-2-(3-{[5-chloro-6-(3-hydroxyazetidin-1-yl)pyrimidin-4-yl]amino}-1H-indazol-6-yl)-1′-ethyl-5′-methoxyspiro[cyclopropane-1,3′-indol]-2′(1′H)-one] | 4.37 nM | 230.6459 | 3889.143 | 1090 nM |
| COc1ccc2c(c1)[C@]1(C[C@H]1c1ccc3c(Nc4ncnc(N5CCOCC5)c4OC(F)F)n[nH]c3c1)C(=O)N2 [Example 109, (1R,2S)-2-(3-{[5-(difluoromethoxy)-6-(morpholin-4-yl)pyrimidin-4-yl]amino}-lH-indazol-6-yl)-5′-methoxyspiro[cyclopropane-1,3′-indol]-2′(1′H)-one] | 6.76 nM | 11070 | 50000 | 1870 nM |
| COc1ccc2c(c1)[C@]1(C[C@H]1c1ccc3c(Nc4ncnc(N5CCOCC5)c4OC)n[nH]c3c1)C(=O)N2C [Example 113, (1R,2S)-5′-methoxy-2-(3-{[5-methoxy-6-(morpholin-4-yl)pyrimidin-4-yl]amino}-1H-indazol-6-yl)-1′-methylspiro[cyclopropane-1,3′-indol]-2′(1′H)-one] | 10.7 nM | 231.7370 | 1888.2629 | 2520 nM |
